In patent US6399629B1, “Efflux pump inhibitors” (priority 1998, dated 2002):

Tested on: Pseudomonas aeruginosa PAM1001
Assay: checkerboard assay (broth microdilution): levofloxacin MIC in presence of efflux pump inhibitor
Format: cell-based
Protocol: For compounds labeled with the prefix ‘M’, potentiation effect is observed by the reduction of the minimum inhibitory concentration of levofloxacin in the presence of the experimental efflux pump inhibitor. The activity of efflux pump inhibitors (EPI) in combination with fluoroquinolones, such as levofloxacin, is assessed by the checkerboard assay (Antimicrobial Combinations. In Antibiotics in Laboratory Medicine, Ed. Victor Lorian, M.D., Fourth edition, 1996, pp 333-338) using broth microdilution method performed as recommended by the National Committee for Clinical Laboratory Standards (1997). Methods for Dilution of Antimicrobial Susceptibility Tests for Bacteria That Grow Aerobically—Fourth Edition; Approved Standard. NCCLS Document M7-A4, Vol 17 No.2). The test organism used is Pseudomonas aeruginosa PAM1001. […] The compounds tabulated below are representative of the described invention.
In these assays, multiple dilutions of two drugs, namely the EPI and levofloxacin, are being tested, alone and in combination, at concentrations equal to, above and below their respective minimal inhibitory concentrations (MICs). In the case of EPI, most of these compounds are devoid of intrinsic antimicrobial activity and are tested up to the maximum concentration of 40 μg/mL. The MIC of levofloxacin against P. aeruginosa PAM1001 is 4 μg/mL.
The EPI tested are readily soluble in water and stock solutions are prepared at a final concentration of 2 mg/mL. Stock solutions are further diluted, according to the needs of a particular assay, in Mueller Hinton Broth (MHB). Stock solution can be stored at −80° C. Quinolones are solubilized according to the instructions of the manufacturers, at a concentration of 1 mg/mL. They are then further diluted in MHB. Stock solution can be stored at −80° C.
The checkerboard assay is performed in microtiter plates. Levofloxacin is diluted in the x axis, each column containing a single concentration of levofloxacin. The EPI is diluted in the y axis, each row containing an equal concentration of EPI. The result of these manipulations is that each well of the microtiter plate contains a unique combination of concentrations of the two agents. Each EPI are tested independently.
The assay is performed in MHB with a final bacterial inoculum of 5×10^5 CFU/mL (from an early-log phase culture). Microtiter plates are incubated during 20 h at 35° C. and are read using a microtiter plate reader (Molecular Devices) at 650 nm as well as visual observation using a microtiterplate reading mirror.

Row | SMILES | Levofloxacin MIC Against P. aerugiuosa PAM1001 in Presence of Efflux Pump Inhibitor (EPI), Minimum Inhibitory Concentration (EPI Conc. 0 μg/mL) [µg/mL] | Levofloxacin MIC Against P. aerugiuosa PAM1001 in Presence of Efflux Pump Inhibitor (EPI), Minimum Inhibitory Concentration (EPI Conc. 0.625 μg/mL) [µg/mL] | Levofloxacin MIC Against P. aerugiuosa PAM1001 in Presence of Efflux Pump Inhibitor (EPI), Minimum Inhibitory Concentration (EPI Conc. 1.25 μg/mL) [µg/mL] | Levofloxacin MIC Against P. aerugiuosa PAM1001 in Presence of Efflux Pump Inhibitor (EPI), Minimum Inhibitory Concentration (EPI Conc. 2.5 μg/mL) [µg/mL] | Levofloxacin MIC Against P. aerugiuosa PAM1001 in Presence of Efflux Pump Inhibitor (EPI), Minimum Inhibitory Concentration (EPI Conc. 5 μg/ mL) [µg/mL] | Levofloxacin MIC Against P. aerugiuosa PAM1001 in Presence of Efflux Pump Inhibitor (EPI), Minimum Inhibitory Concentration (EPI Conc. 10 μg/mL) [µg/mL] | Levofloxacin MIC Against P. aerugiuosa PAM1001 in Presence of Efflux Pump Inhibitor (EPI), Minimum Inhibitory Concentration (EPI Conc. 20 μg/mL) [µg/mL] | Levofloxacin MIC Against P. aerugiuosa PAM1001 in Presence of Efflux Pump Inhibitor (EPI), Minimum Inhibitory Concentration (EPI Conc. 40 μg/mL) [µg/mL]
1 | CCc1ccc2ncc(NC(=O)[C@@H](CCc3ccccc3)NC(=O)[C@H]3C[C@H](CN)CN3)cc2c1 [Compound M14, (2R,4R)-4-(Aminomethyl)-N-[(1R)-3-phenyl-1-(6-ethyl-3-quiolylcarbamoyl)propyl]-2-pyrrolidinecarboxamide] | 4 | 4 | 4 | 2 | 0.03 | 0.03 | 0.03 | 
2 | CN(C(=O)[C@@H]1C[C@@H](NC(=O)CN)CN1)[C@H](CCc1ccccc1)C(=O)Nc1cnc2ccccc2c1 [Compound M15, (2S,4R)-4-(2-Aminoacetamido)-N-methyl-N-[(1R)-3-phenyl-1-(3-quinolylcarbamoyl)propyl]-2-pyrrolidiecarboxamide] | 4 | 4 | 4 | 4 | 4 | 1 | 0.06 | 0.015
3 | NCC(=O)N[C@H]1CN[C@@H](C(=O)N[C@H](Cc2ccc(F)cc2)C(=O)Nc2cnc3ccccc3c2)C1 [Compound M20, (2R,4R)-4-(2-Aminoacetamideo)-N-[(1R)-2-(4-fluorophenyl)-1-(3-quinolylcarbamoyl)ethyl]-2-pyrrolidinecarboxamide] | 4 | 4 | 4 | 4 | 2 | 0.50 | 0.125 | 0.015
4 | NCC(=O)N[C@H]1CN[C@H](C(=O)N[C@H](Cc2ccc(F)cc2)C(=O)Nc2cnc3ccccc3c2)C1 [Compound M21, (2S,4R)-4-(2-Aminoacetamido)-N-[(1R)-2-(4-fluorophenyl)-1-(3-quinolylcarbamoyl)ethyl]-2-pyrrolidnecarboxamide] | 4 | 4 | 4 | 2 | 2 | 0.25 | 0.06 | 0.015
5 | COc1cc(C)c2ncc(NC(=O)[C@@H](CCc3ccccc3)NC(=O)[C@@H]3C[C@@H](NC(=O)CN)CN3)cc2c1 [Compound M22] | 4 | 4 | 4 | 4 | 4 | 0.50 | 0.03 | 0.015
6 | CCc1ccc2ncc(NC(=O)[C@@H](Cc3ccc(O)cc3)NC(=O)[C@H]3C[C@H](CN)CN3)cc2c1 [Compound M25, (2R,4R)-4-(Amiomethyl)-N-[(1R)-2-(4-hydroxyphenyl)-1-(6-ethyl-3-quinolylcarbamoyl)ethyl]-2-pyrrolidinecarboxamide] | 4 | 4 | 4 | 4 | 4 | 0.5 | 0.015 | 
7 | NC[C@@H]1CN[C@@H](C(=O)N[C@H](CCc2ccccc2)C(=O)Nc2ccc3ncccc3c2)C1 [Compound M29, (2R,4R)-4-(Aminomethyl)-N-[(1R)-3-pheyl-1-(6-quinolylcarbamoyl)propyl]-2-pyrrolidinecarboxamide] | 4 | 4 | 4 | 2 | 1 | 0.25 | 0.06 | 0.03
8 | NC[C@@H]1CN[C@@H](C(=O)N[C@H](CCc2ccccc2)C(=O)Nc2cccc3cccnc23)C1 [Compound M30, (2R,4R)-4-(Aminomethyl)-N-[(1R)-3-pheyl-1-(8-quinolylcarbamoyl)propyl]-2-pyrrolidinecarboxamide] | 4 | 4 | 4 | 4 | 4 | 2 | 0.03 | 0.015
9 | NC[C@@H]1CN[C@@H](C(=O)N[C@H](Cc2ccc(F)cc2)C(=O)Nc2cnc3ccccc3c2)C1 [Compound M31, (2R,4R)-4-(Aminomethyl)-N-[(1R)-2-(4-fluoropheyl)-1-(3-quinolylcarbamoyl)ethyl]-2-pyrrolidinecarboxamide] | 4 | 4 | 4 | 4 | 1 | 0.25 | 0.03 | 0.03
